Columns and labels:
[1] = molecular target: T1, Mushroom Tyrosinase (Agaricus bisporus, UniProt C7FF04); assay: Tyrosinase inhibition assay (L-Tyrosine substrate, absorbance at 492 nm); format: biochemical; conditions: EAA alone
T1 construct: purchased Sigma
Protocol: Tyrosinase acts on L-Tyrosine forming a pink colored complex, the intensity of which is measured at 492 nm. The Tyrosinase activity in the presence and absence of inhibitor is assayed spectrophotometrically at 492 nm using a Microplate reader.
Mushroom Tyrosinase enzyme is prepared by dissolving entire content in […], pH 6.5 pre-chilled enzyme buffer to get […]. Gentle shaking for five minutes aids in dissolution of enzyme. Aliquot the stock into vials of 100 μl each and keep at −80° until use for at least 2 months. Multiple freeze-thaw cycles of the enzyme must be avoided.
A stock of 2.50 mM L-Tyrosine Disodium salt (Sigma) is prepared in 1.5 mM phosphate buffer (pH 6.5) by dissolving 2.845 mg/5 ml.
Samples were dissolved in DMSO and further dilutions were carried out in buffer
The assay was performed in a 96 well clear microtitre plate. Different concentrations of the composition comprising ethyl-ascorbic acid and tetrahydrocurcuminoids were pre incubated with 10 μl of […] stock Solution of Mushroom Tyrosinase (f.c. 6 U/well) at 37° C. for 10 minutes. The reaction is initiated by adding 2.5 mM L-Tyrosine disodium and the absorbance is read immediately every minute until 15 minutes using the microplate reader at 492 nm. A test blank well was prepared for each sample without the enzyme. Enzyme reaction with vehicle alone served as a control for enzyme activity. Kojic acid was used as a positive control.
The results are expressed as IC50 values using Graphpad prism software. The percentage of inhibition of melanin is calculated as follows,
Where C-absorbance in control and T-absorbance in test sample

[2] = test system: B16F1 mouse melanoma cells; assay: Melanogenesis inhibition in α-MSH stimulated B16F1 cells (melanin at 405 nm); format: cell-based; conditions: EAA alone, 72 hours
Protocol: The intracellular melanin in B16F1 mouse melanoma cells is extracted by 1N NaOH. The brown colored melanin thus extracted is estimated at 405 nm. The synthesis of melanin is inhibited in the presence of inhibitor which results in reduced absorbance at 405 nm.
MSH Stock was prepared at 1 mg/ml in distilled water. MSH at a final concentration of 1 nM was used to stimulate melanogenesis
B16F1 mouse melanoma cells were cultured for 24 hours in a 96 well microtiter plate at a seeding density of 5000 cells per well. Cells are treated with varying non cytotoxic concentrations of the sample over a period of 72 hours along with melanin stimulating hormone (∝-MSH) to induce the synthesis of melanin pigment. Untreated cells and cells without ∝-MSH addition were used as positive and negative control. The melanin produced by the cells was extracted by 1N NaOH and the absorbance was read at 405 nm in a Microplate reader. The inhibitory effect of the sample is calculated based on the degree of inhibition of melanin formation.
The results are expressed as IC50 values using Graph pad prism software. The percentage of inhibition of melanin is calculated as follows,
[formula] Where C-absorbance due to melanin in untreated cells
T-absorbance due to melanin in sample treated cells

T1 sequence (C7FF04 1-392 limits assumed): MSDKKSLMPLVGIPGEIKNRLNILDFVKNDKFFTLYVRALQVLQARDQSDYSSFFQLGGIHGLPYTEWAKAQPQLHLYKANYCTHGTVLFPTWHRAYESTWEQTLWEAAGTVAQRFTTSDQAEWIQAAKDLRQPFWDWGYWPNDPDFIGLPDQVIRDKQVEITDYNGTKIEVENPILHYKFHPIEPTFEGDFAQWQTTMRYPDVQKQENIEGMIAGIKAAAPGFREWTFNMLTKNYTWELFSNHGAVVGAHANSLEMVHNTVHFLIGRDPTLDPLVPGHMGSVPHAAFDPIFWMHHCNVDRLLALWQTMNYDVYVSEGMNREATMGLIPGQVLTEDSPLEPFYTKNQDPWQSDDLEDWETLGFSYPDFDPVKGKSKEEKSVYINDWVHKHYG

For `CCOC1=C(O)C(=O)O[C@@H]1[C@@H](O)CO` [Ethyl-ascorbic acid (EAA), 3-O-ethyl-ascorbic acid], the “% Inhibition of tyrosinase activity” value ([1]; 62.5 μg/ml) was “Nil”, the “% Inhibition of tyrosinase activity” value ([1]; 125 μg/ml) was “Nil” and the inhibition at 250 µg/mL ([1]; 250 μg/ml) was 11.6%. The inhibition at 500 µg/mL ([1]; 500 μg/ml) was 28.3%, the “% Inhibition of melanogenesis” value ([2]; 0.625 μg/ml) was “Nil” and the “% Inhibition of melanogenesis” value ([2]; 0.625 μg/ml, listed as ethyl-ascorbic acid) was “did not show any melanogenesis inhibition”. The “% Inhibition of melanogenesis” value ([2]; 1.25 μg/ml) was “Nil”.

— patent US10864154B2, “Skin care compositions and their applications” (SAMI LABS LIMITED, priority 2019, dated 2020)
